Measured values as given in the supplement of paper PMC11208160.

Assay: recombinant UMI read abundance after kanamycin selection (control-corrected) (log10(CPM+1)); higher = more efficient recombination; extreme values may be limits of the assay; sequences stand for … in AGTGCAGAGAAAATCGGCCAGTTTTCTCTGCCTGCAGTCCGCATGCCGTGGGACCCCTTGGGTTCTAACCTGTTGCCTAGATTTATGCAGCGGACTGCCTTTCTCCCAAAGTGATAAACCGG…AGGTTGGTTTCACT; site = the 11-nt donor
Procedure, shortened: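 Pooled Escherichia coli screen of donor and donor-binding-loop pairs for the IS621 bridge recombinase. Each pair sits with a 12-nt UMI on a plasmid carrying a promoterless kanamycin gene. The library was co-electroporated with a target plasmid encoding a fixed target and T7-inducible recombinase, then plated with IPTG (0.07 mM) plus kanamycin, or unselected, each in two replicates. Recombinant UMIs were PCR-amplified across the donor–target junction and sequenced. Counts became CPM, averaged over replicates, scaled by control-derived factors and reported as log10(CPM+1).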

Row | Sequence | recombinant UMI read abundance (log10)
1 | CAAGCACCATGGACCGGTTTTCCCGGTAATCCGTATTTGCT (site CAAGCATCTAG) | 0.0059
2 | CAAGCAGCATGGACCGGTTTTCCCGGTAATCCGTATTTGCC (site CAAGCAGCTAG) | 1.86
3 | CAAGCAGCATGGACCGGTTTTCCCGGTAATCCGTATTTGCC (site CAAGCAGCTCG) | 1.16
4 | CAAGCAGCATGGACCGGTTTTCCCGGTAATCCGTATTTGCC (site CAAGCAGCTGG) | 2.75
5 | CAAGCAGCATGGACCGGTTTTCCCGGTAATCCGTATTTGCC (site CAAGCAGCTTG) | 1.94
6 | CAAGCATCATGGACCGGTTTTCCCGGTAATCCGTATTTGCT (site CAAGCAACTAG) | 0
7 | CAAGCATCATGGACCGGTTTTCCCGGTAATCCGTATTTGCT (site CAAGCACCTAG) | 0
8 | CAAGCATCATGGACCGGTTTTCCCGGTAATCCGTATTTGCT (site CAAGCAGCTAG) | 0
9 | CAAGCATCATGGACCGGTTTTCCCGGTAATCCGTATTTGCT (site CAAGCATCTAG) | 2.05
10 | CAAGCCTCATGGACCGGTTTTCCCGGTAATCCGTATTTGTC (site CAAGCCTCTGA) | 3.3
11 | CAAGCGCCATGGACCGGTTTTCCCGGTAATCCGTATTTGTT (site CAAGCGCCTAA) | 2.13
12 | CAAGCGCCATGGACCGGTTTTCCCGGTAATCCGTATTTGTT (site CAAGCGCCTCA) | 0.0113
13 | CAAGCGCCATGGACCGGTTTTCCCGGTAATCCGTATTTGTT (site CAAGCGCCTGA) | 1.75
14 | CAAGCGCCATGGACCGGTTTTCCCGGTAATCCGTATTTGTT (site CAAGCGCCTTA) | 0.663
15 | CAAGCTGCATGGACCGGTTTTCCCGGTAATCCGTATTTGCT (site CAAGCAGCTAG) | 0.397
16 | CAAGCTGCATGGACCGGTTTTCCCGGTAATCCGTATTTGCT (site CAAGCCGCTAG) | 0.95
17 | CAAGCTGCATGGACCGGTTTTCCCGGTAATCCGTATTTGCT (site CAAGCGGCTAG) | 0
18 | CAAGCTGCATGGACCGGTTTTCCCGGTAATCCGTATTTGCT (site CAAGCTGCTAG) | 2.42
19 | CAAGGAGCATGGACCGGTTTTCCCGGTAATCCGTATTTGTC (site CAAGGAGCTGA) | 3.18
20 | CAAGTCACATGGACCGGTTTTCCCGGTAATCCGTATTTGAG (site CAAGTCACTCA) | 1.48
21 | CAAGTCACATGGACCGGTTTTCCCGGTAATCCGTATTTGAG (site CAAGTCACTCC) | 0.563
22 | CAAGTCACATGGACCGGTTTTCCCGGTAATCCGTATTTGAG (site CAAGTCACTCG) | 1.1
23 | CAAGTCACATGGACCGGTTTTCCCGGTAATCCGTATTTGAG (site CAAGTCACTCT) | 1.82

Row | Sequence | recombinant UMI read abundance (log10)
24 | CAAGTCCCATGGACCGGTTTTCCCGGTAATCCGTATTTGCT (site CAAATCCCTAG) | 0
25 | CAAGTCCCATGGACCGGTTTTCCCGGTAATCCGTATTTGCT (site CAACTCCCTAG) | 0.843
26 | CAAGTCCCATGGACCGGTTTTCCCGGTAATCCGTATTTGCT (site CAAGTCCCTAG) | 1.92
27 | CAAGTCCCATGGACCGGTTTTCCCGGTAATCCGTATTTGCT (site CAATTCCCTAG) | 0
28 | CAAGTCGCATGGACCGGTTTTCCCGGTAATCCGTATTTGGG (site CAAGTCACTCC) | 0.0586
29 | CAAGTCGCATGGACCGGTTTTCCCGGTAATCCGTATTTGGG (site CAAGTCCCTCC) | 0.554
30 | CAAGTCGCATGGACCGGTTTTCCCGGTAATCCGTATTTGGG (site CAAGTCGCTCC) | 0.908
31 | CAAGTCGCATGGACCGGTTTTCCCGGTAATCCGTATTTGGG (site CAAGTCTCTCC) | 1.46
32 | CAAGTCTCATGGACCGGTTTTCCCGGTAATCCGTATTTGGG (site CAAGTCACTCC) | 0.0252
33 | CAAGTCTCATGGACCGGTTTTCCCGGTAATCCGTATTTGGG (site CAAGTCCCTCC) | 0.019
34 | CAAGTCTCATGGACCGGTTTTCCCGGTAATCCGTATTTGGG (site CAAGTCGCTCC) | 0.02
35 | CAAGTCTCATGGACCGGTTTTCCCGGTAATCCGTATTTGGG (site CAAGTCTCTCC) | 0.916
36 | CAAGTGACATGGACCGGTTTTCCCGGTAATCCGTATTTGGG (site CAAGTAACTCC) | 1.09
37 | CAAGTGACATGGACCGGTTTTCCCGGTAATCCGTATTTGGG (site CAAGTCACTCC) | 0.00913
38 | CAAGTGACATGGACCGGTTTTCCCGGTAATCCGTATTTGGG (site CAAGTGACTCC) | 0.246
39 | CAAGTGACATGGACCGGTTTTCCCGGTAATCCGTATTTGGG (site CAAGTTACTCC) | 0.48
40 | CAATACGCATGGACCGGTTTTCCCGGTAATCCGTATTTGAT (site CAATACGCTAT) | 2.03
41 | CAATACTCATGGACCGGTTTTCCCGGTAATCCGTATTTGAA (site CAATACTCTTT) | 3.09
42 | CAATACTCATGGACCGGTTTTCCCGGTAATCCGTATTTGAA (site CAATCCTCTTT) | 0
43 | CAATACTCATGGACCGGTTTTCCCGGTAATCCGTATTTGAA (site CAATGCTCTTT) | 0.0128
44 | CAATACTCATGGACCGGTTTTCCCGGTAATCCGTATTTGAA (site CAATTCTCTTT) | 0
45 | CAATCACCATGGACCGGTTTTCCCGGTAATCCGTATTTGCT (site CAATCACCTAG) | 0.00562
46 | CAATCACCATGGACCGGTTTTCCCGGTAATCCGTATTTGCT (site CGATCATCTAG) | 0

Row | Sequence | recombinant UMI read abundance (log10)
47 | CAATCATCATGGACCGGTTTTCCCGGTAATCCGTATTTGCT (site CAATCATCTAG) | 2.15
48 | CAATCATCATGGACCGGTTTTCCCGGTAATCCGTATTTGCT (site CCATCATCTAG) | 0.883
49 | CAATCATCATGGACCGGTTTTCCCGGTAATCCGTATTTGCT (site CGATCATCTAG) | 0.258
50 | CAATCATCATGGACCGGTTTTCCCGGTAATCCGTATTTGCT (site CTATCATCTAG) | 0.404
51 | CAATCTGCATGGACCGGTTTTCCCGGTAATCCGTATTTGCT (site CAATCTGCTAG) | 0.515
52 | CAATGCCCATGGACCGGTTTTCCCGGTAATCCGTATTTGAA (site CAATGCACTTT) | 0.00911
53 | CAATGCCCATGGACCGGTTTTCCCGGTAATCCGTATTTGAA (site CAATGCCCTTT) | 1
54 | CAATGCCCATGGACCGGTTTTCCCGGTAATCCGTATTTGAA (site CAATGCGCTTT) | 0.00922
55 | CAATGCCCATGGACCGGTTTTCCCGGTAATCCGTATTTGAA (site CAATGCTCTTT) | 1.62
56 | CAATGCTCATGGACCGGTTTTCCCGGTAATCCGTATTTGAG (site CAATGCTCTAT) | 1.46
57 | CAATGCTCATGGACCGGTTTTCCCGGTAATCCGTATTTGAG (site CAATGCTCTCT) | 2.2
58 | CAATGCTCATGGACCGGTTTTCCCGGTAATCCGTATTTGAG (site CAATGCTCTGT) | 0.535
59 | CAATGCTCATGGACCGGTTTTCCCGGTAATCCGTATTTGAG (site CAATGCTCTTT) | 0.812
60 | CAATGGCCATGGACCGGTTTTCCCGGTAATCCGTATTTGCG (site CAATGGCCTCG) | 0.00456
61 | CAATGGTCATGGACCGGTTTTCCCGGTAATCCGTATTTGAA (site CAATGATCTTT) | 2.68
62 | CAATGGTCATGGACCGGTTTTCCCGGTAATCCGTATTTGAA (site CAATGCTCTTT) | 0.00506
63 | CAATGGTCATGGACCGGTTTTCCCGGTAATCCGTATTTGAA (site CAATGGTCTTT) | 2.39
64 | CAATGGTCATGGACCGGTTTTCCCGGTAATCCGTATTTGAA (site CAATGTTCTTT) | 0
65 | CAATGTTCATGGACCGGTTTTCCCGGTAATCCGTATTTGAA (site CAATGATCTTT) | 0.287
66 | CAATGTTCATGGACCGGTTTTCCCGGTAATCCGTATTTGAA (site CAATGCTCTTT) | 0.0108
67 | CAATGTTCATGGACCGGTTTTCCCGGTAATCCGTATTTGAA (site CAATGGTCTTT) | 0.0106
68 | CAATGTTCATGGACCGGTTTTCCCGGTAATCCGTATTTGAA (site CAATGTTCTTT) | 2.11
